Measured values published in patent US20060013858A1, “Fludrocortisone treatment for hearing loss” (priority 2002, published 2006).
Values joined by “and” are separate entries in the source; they are usually repeats but may differ in a detail not shown here. Identical values can stand only once. Like-named read-outs stand apart in the source and are kept apart here.

What was measured:
[1] = test system: MRL/MpJ-Fas^lPr autoimmune mice; assay: Stria blood vessel size (quantitative morphology, plastic embedding); type: in vivo, mouse; conditions: Chi-squared of vessels above and below normal median
Source text: To increase histological detail in order to quantitatively measure steroid responsive hearing loss (stria blood vessel sizes), plastic embedding methods were used as described herein. Age-matched BALB/c controls also were processed to provide details of non-autoimmune stria. Camera lucida drawings were made of the stria, its blood vessels, and the edematous spaces. Digitized measurements were made of these various features.

[2] = test system: MRL/MpJ-Fas^lPr autoimmune mice; conditions: Trune et al., Laryngoscope 2000; cited from earlier work
[3] = test system: MRL/MpJ-Fas^lPr autoimmune mice; assay: Auditory brainstem response (ABR) audiometry after oral steroid treatment; type: in vivo, mouse; conditions: for % of ears that are same (unchanged) / % of ears that are worse / % of ears that are better: two months following treatment, dose not stated; for % of ears that are same (unchanged): combined ABR thresholds +/-15 dB; for % of ears that are worse: combined ABR thresholds higher by 20 dB or more; for % of ears that are better: combined ABR thresholds lower by 20 dB or more
Source text: The MRL/MpJ-Fas^lPr autoimmune mouse is an established model of autoimmune sensorineural hearing loss (Ruckenstein et al., Acta OtolaryngoL 113:160-5, 1993; Trune et al. Hear. Res. 105:57-64, 1997). These mice carry a Fas gene defect that prevents apoptosis of self-recognizing T lymphocytes, leading to T cell proliferation and polyclonal B cell activation (Watanabe-Fukunaga et al. Nature 356:314-7, 1992). Spontaneous systemic autoimmune disease develops in MRL/MpJ-Fas^lPr autoimmune mice, resulting in increased serum immune complexes, anti-DNA antibodies, lymphadenopathy, elevated auditory thresholds, lowered hematocrits due to anti-erythrocyte autoantibodies, splenomegaly, increased body mass and pathological changes in the stria vascularis (Id. and Ruckenstein et al. Otolaryngol. Head Neck Surg. 121:452-6, 1999; Trune et al. Hear. Res. 155:9-20, 2001).
Mice (Jackson Laboratories, Bar Harbor, Me.) were obtained at two months of age. Onset of systemic autoimmune disease occurs at 3-4 months of age and cochlear thresholds rise shortly thereafter (Trune et al., Otolaryngol. Head Neck Surg. 117:504-8, 1997). Mice were tested with auditory brainstem response (ABR) audiometry (see Example 2) at 2-3 months of age to establish pretreatment baseline auditory thresholds.
(§1) Animals were anesthetized (kcetamine+xylazine) and the individual ears of each mouse stimulated with a closed-tube sound delivery system sealed into the ear canal. The ABR to tone-burst stimuli at 4, 8, 16, and 32 kHz was recorded and thresholds obtained for each ear. Absolute thresholds and threshold changes over the treatment period for each ear were calculated to determine if treatments impact cochlear function. For each ear, pretreatment and posttreatment thresholds at the four frequencies were compared statistically to establish any change over the treatment period.
(§2) The shifts for each frequency within an ear were added to derive its total change in threshold as described previously (Trune et al., Hear. Res. 137:160-6, 1999; Trune et al., Hear. Res. 137:167-73, 1999). If the ear's combined posttreatment thresholds was lower by 20 dB or more, the ear was considered to be improved (average of 5 dB per frequency). The ear is considered unchanged if the combined thresholds are +/−15 dB and worse if the combined thresholds were higher by 20 dB or more.

[4] = test system: MRL/MpJ-Fas^lPr autoimmune mice; assay: Anti-nuclear antibody (ANA) levels by immunofluorescence; type: in vivo, mouse; conditions: pre- vs posttreatment
Source text: (§3) This example describes methods used to measure the severity of systemic autoimmune disease, as described in Trune et al. (Hear. Res. 38:57-66, 1989). Briefly, baseline and posttreatment serum samples are taken for measurement of hematocrit, antinuclear antibodies, and serum immune complexes as indices of systemic autoimmune disease progression. […] For those mice still alive at the time of sacrifice, some spleens were weighed to assess splenomegaly, another index of systemic autoimmune disease progression.
Antibodies against nuclear material are another manifestation of autoimmune disease. Anti-nuclear antibody (ANA) levels are determined by level of immunofluorescence (1+ to 4+) with normal as 1+as previously described (Trune et al., Hear. Res. 38:57-66, 1989).

[5] = test system: MRL/MpJ-Fas^lPr autoimmune mice; assay: Drug combination therapy: survival; type: in vivo, mouse; conditions: for % alive: 2 months
[6] = test system: MRL/MpJ-Fas^lPr autoimmune mice; assay: Serum immune complexes as index of systemic autoimmune disease; type: in vivo, mouse; conditions: for effect on serum immune complexes: pre- vs posttreatment
Source text: as §3
(§4) It may not be possible to perform an extensive statistical analysis on serum measures if there are high mortality rates, if the differential mortality rates between groups lead to large differences in sample sizes, and an inability to get sufficient blood from some mice. In this case, pretreatment-posttreatment statistical comparisons (paired t-tests) are conducted only for those mice that survive the treatment period.

[7] = test system: MRL/MpJ-Fas^lPr autoimmune mice; assay: Blood hematocrit as index of systemic autoimmune disease; type: in vivo, mouse; conditions: for change in hematocrit: pre- vs posttreatment, any dose
Source text: as §3, §4

[8] = test system: MRL/MpJ-Fas^lPr autoimmune mice; conditions: mouse, in vivo
Source text: (§5) Serum samples were collected for baseline levels of hematocrit, serum immune complexes, and antinuclear antibodies, all hallmarks of systemic autoimmune disease. […] At the end of treatments, ABR audiometry and serum collection were repeated at 2, 3, and 4 months of treatment to determine steroid effects on cochlear function and systemic autoimmunity.
(§6) Oral delivery in mice provides a constant source of steroid, parallels oral administration in humans, and avoids the trauma of daily injections.
(§7) Mice receiving aldosterone were administered a daily oral dose of 3, 5, 15, or 30 μLg/kg/day of d-aldosterone (Sigma, St. Louis Mo.). Aldosterone drinking water was prepared by dissolving 50 μg of steroid in 50 μl of 100% ETOH, then diluting the required amount in the 500 ml of water in the drinking bottle to reach the final effective dose. The highest final ETOH concentration in a waterbottle was 0.018% (90 μl dose) and was considered negligible.
(§8) Mice receiving fludrocortisone were administered a daily oral dose of 3 μg/kg per day or 10 μg/kg per day. Fludrocortisone drinking water was prepared by dissolving 50 μg of fludrocortisone, 50 μl of 100% ETOH, then diluting the required amount in the 500 ml of water in the drinking bottle to reach the final effective dose. The final ETOH concentration in a water bottle was considered negligible.
(§9) The shift in thresholds between baseline and posttreatment times was analyzed for each ear with a paired t-test. […] A probability value less than 0.05 was considered significant in all tests. […] In addition, by summing the shifts at each frequency, any random fluctuations in thresholds at the different frequencies due to equipment or animal variation are mathematically removed.

[9] = test system: MRL/MpJ-Fas^lPr autoimmune mice; assay: Drug combination therapy: ABR ear outcome; type: in vivo, mouse
Procedure: as §1, §2
Hearing loss was monitored monthly using the method described in Example 2.

[10] = test system: MRL/MpJ-Fas^lPr autoimmune mice; assay: Cochlear histology of the stria vascularis; type: in vivo, mouse; conditions: for stria vascularis appearance: after steroid treatment, qualitative
Procedure: Following decalcification in EDTA, the ears were cryostat sectioned for qualitative morphologic evaluations of the stria vascularis. The procedure of Whitlon et al. (Brain Res. Protocols, 6:159-66, 2001) can be used to improve OCT compound infiltration and tissue preservation. The cochleas were cryostat sectioned for immunocytochemical analyses. Quantitative morphology was performed on glycol methacrylate (GMA) embedded tissue as follows. […] Following decalcification in EDTA, the ears were embedded in glycol methacrylate for light microscopic examination. Every fourth section (5 μm thickness) wass serially mounted on glass slides and stained for quantitative and qualitative analyses. Cochleas were scanned for pathological changes and treatment effects. Of particular interest is the stria vascularis, lateral wall, hair cells, spiral ganglion neurons, and all blood vessels in modiolar and sensory regions. The area occupied by stria vascularis, blood vessels, non-blood vessels, and intercellular edema was measured for statistical analysis. Alternatively, the following methods can be used to qualitatively determine stria vascularis and spiral ligament and integrity of endothelial cell tight junctions, intercellular edema. […] Thin sections are observed on a Philips CM100. Qualitative observations are made of the cochlear tissue areas above and any other regions determined in the immunohistochemistry section to be responsive to steroid therapy. Stria vascularis is examined for integrity of endothelial cell tight junctions, and intercellular edema, to determine the treatment effects on known changes that occur in autoimmune disease.

[11] = test system: MRL/MpJ-Fas^lPr autoimmune mice; assay: Spleen weight (splenomegaly); type: in vivo, mouse; conditions: at sacrifice; prednisolone 5 mg treatment; aldosterone dose not stated
Source text: as §3
Increased spleen size also is a manifestation of autoimmune disease, increasing with progression of systemic T and B cell proliferation. The spleen is approximately 75-100 mg in normal mice.

[12] = test system: MRL/MpJ-Fas^lPr autoimmune mice; assay: Survival and tolerance of steroid drinking water; conditions: for tolerance of steroid in the drinking water: dehydration, avoidance of drinking
Source text: as §5, §6, §7, §8, §9

[13] = test system: MRL/MpJ-Fas^lPr autoimmune mice
Procedure: (§10) The spironolactone treatment group was given daily oral doses (5 mg/kg per day) of spironolactone (Sigma, St. Louis, Mo.). Spironolactone drinking water was prepared by dissolving 15 mg of spironolactone in 0.6-0.8 ml of 100% ethyl alcohol (ETOH) and diluting it into a 500 ml drinking-water bottle. Mice drink 3-5 ml of water daily, so the effective dose was approximately 0.15 mg per day. The final ETOH concentration was approximately 0.1% and considered negligible. The dose of spironolactone administered (5 mg/kg per day) was equivalent to the dose used clinically for the treatment of primary hyperaldosteronism and was likely insufficient to completely block the mineralocorticoid receptor.
The spironolactone+aldosterone treatment group was given 15 μg/kg per day of aldosterone in addition to the 5 mg/kg/day of spironolactone. Aldosterone drinking water was prepared by dissolving 50 μg of aldosterone in 50 μl of 100% ETOH and diluting it in the same 500 ml drinking-water bottle as the spironolactone. The final effective dose of aldosterone was approximately 0.5 μg per day. The final ETOH concentration of aldosterone was less than 0.009%. […]
ABR thresholds were recorded before and during treatment (2, 3, and 4 months) to measure the effect of steroids on hearing decline as described above in Example 2.
Ears also were analyzed independently across all frequencies. […]

[14] = test system: MRL/MpJ-Fas^lPr autoimmune mice; conditions: spironolactone study
Procedure: as §10

[15] = Aldosterone 10 μg/kg/day, 2 months of treatment

C[C@]12CCC(=O)C=C1CC[C@@H]1[C@@H]2[C@@H](O)C[C@]2(C=O)[C@@H](C(=O)CO)CC[C@@H]12 [Aldosterone, d-aldosterone]
stria blood vessel size relative to normal BALB/c median (35.3 μm^2) [1]: the same size as normal mice
reversing or stabilizing autoimmune related hearing loss [2]: just as effective as prednisolone
overall ABR threshold changes vs pretreatment baselines ([3]; two month treatment period): prevent significant overall threshold changes
% of ears that are same (unchanged) [3]: 27%
% of ears that are worse [3]: 69%
% of ears that are better [3]: 4%
thresholds / cochlear function relative to water controls ([3]; two months of treatment, Chi-squared): significantly better thresholds than controls
impact on continuing elevation of ANA levels [4]: did not have a significant impact
Alive at 2 months of Tx (mice) ([5]; Aldosterone 10 μg/kg/day): 7
% alive ([5]; Aldosterone 10 μg/kg/day): 87.5%
posttreatment serum immune complex levels ([6]; higher dose aldosterone, four surviving mice): 53,000 μg/ml
serum immune complex levels in individual mice ([6]; higher dose aldosterone, two of the four surviving mice): 157,000 μg/ml and 45,000 μg/ml
effect on serum immune complexes [6]: did not show any significant depression
change in hematocrit [7]: did not cause any significant change
tolerance of steroid in the drinking water [8]: no adverse affects
# Better (ears) [9, 15]: 0
# Worse (ears) [9, 15]: 13
# no change (ears) [9, 15]: 1
(%) Worse (ears) [9, 15]: (93%)
(%) no change (ears) [9, 15]: 7%
prevention of hearing loss / decrease of rate of hearing loss ([9]; prednisolone alone at 1 mg/kg/day, aldosterone alone at 3 μg/kg/day): not prevented
stria vascularis appearance [10]: restored the stria to almost normal appearance
stria appearance ([10]; aldosterone 15 and 30 μg treatment groups): virtually normal in appearance
stria epithelia appearance ([10]; lowest aldosterone dose): some edema and large vessels
average spleen weight [11]: 399 mg

C[C@]12CCC(=O)C=C1CC[C@H]1[C@@H]3CC[C@](O)(C(=O)CO)[C@@]3(C)C[C@H](O)[C@@]12F [Fludrocortisone]
% of ears that are same (unchanged) [3]: 55% and 54.5%
% of ears that are worse [3]: 34%
% of ears that are better [3]: 12% and 11.5%
tolerance of steroid in the drinking water [12]: similarly tolerate

CC(=O)S[C@@H]1CC2=CC(=O)CC[C@]2(C)[C@H]2CC[C@@]3(C)[C@@H](CC[C@@]34CCC(=O)O4)[C@H]12 [Spironolactone]
hearing patterns compared to water controls ([13]; four months of treatment): no difference from controls
hearing thresholds compared to water controls ([13]; three months of treatment): no different from untreated mice
systemic immune disease (immune complexes, hematocrits, body weights) [14]: normal progression of systemic disease

prednisolone sodium phosphate
tolerance of steroid in the drinking water [12]: no adverse affects
survival ([12]; end of two months of treatment): 60-65%
impact on continuing elevation of ANA levels [4]: did not have a significant impact
systemic immune disease (immune complexes, hematocrits, body weights) [14]: all of the normal immune suppression effects
Alive at 2 months of Tx (mice) ([5]; Prednisolone 3 mg/kg/day): 3
% alive ([5]; Prednisolone 3 mg/kg/day): 42.9%
serum immune complex levels after treatment ([6]; higher prednisolone dose, dropped from 3,920 μg/ml): approximately 450 μg/ml
effect on serum immune complexes [6]: lowered serum immune complexes in a dose dependent manner
serum immune complexes after treatment ([6]; prednisolone 5 mg dose, reduced from 4,570 μg/ml): 1,092 μg/ml
hematocrits ([7]; higher dose prednisolone): elevated hematocrits beyond the normal range
average hematocrits ([7]; lower prednisolone dose): in the normal range
change in hematocrit [7]: elevated hematocrits
stria vascularis appearance [10]: proper epithelium thickness, although dilated vessels still were seen
average spleen weight [11]: 45 mg
